Reference: patent US20110319362A1, “STAT3 LIGANDS AND THERAPEUTIC USES THEREOF” (priority 2008, published 2011)

These molecules were tested on MDA-MB-468 cancer cell line (assay: Cell growth assay (WST-8)). Conditions: Homo sapiens, MDA-MB-468, 96 h; Table 2 prints no column heads; columns and unit as in Table 1; WST-8, 4 days; read-out: Inhibition of cell growth IC50, MDA-MB-468 cancer cell line (pro-drugs, Table 2).
Assay type: cell-based
Description: The effect of STAT3 compounds on cell growth was evaluated by a WST-8 [2-(2-methoxy-4-nitrophenyl)-3-(4-nitrophenyl)-5-(2,4-disulfophenyl)-2H-tetrazolium, monosodium salt assay (Dojindo Molecular Technologies, Inc). Cells (3000-4000 cells in each well) were cultured in 96-well tissue culture plates in medium (200 μL) containing various concentrations of STAT3 compounds for 4 days. At the end of incubation, WST-8 dye (20 μL) was added to each well and incubated for an additional 1-3 h, and then the absorbance was measured in a microplate reader (Molecular Devices) at 450 nm. Cell growth inhibition was evaluated as the ratio of the absorbance of the sample to that of the control.

| Structure (SMILES) | IC50 |
| --- | --- |
| CCCCCCCCCCCCCCCCOP(=O)(O)C(F)(F)c1ccc2cc(C(=O)N[C@H]3CCCC[C@H]4CC[C@@H](C(=O)NC(CCC(N)=O)C(=O)NCc5ccccc5)N4C3=O)[nH]c2c1 (stereo partly shown) | > 50 µM |
| CCCCCCCCCCCCCCCCOP(=O)(OCCCCCCCCCCCCCCCC)C(F)(F)c1ccc2cc(C(=O)N[C@H]3CCCC[C@H]4CC[C@@H](C(=O)NC(CCC(N)=O)C(=O)NCc5ccccc5)N4C3=O)[nH]c2c1 (stereo partly shown) | < 30 µM |
| CC(C)(C)C(=O)OCOP(=O)(OCOC(=O)C(C)(C)C)C(F)(F)c1ccc2[nH]c(C(=O)N[C@H]3CCCCC4CC[C@@H](C(=O)NCCc5cn[nH]c5)N4C3=O)cc2c1 (stereo partly shown) [Example 63] | < 50 µM |
| CC(C)OC(=O)OCOP(=O)(OCOC(=O)OC(C)C)C(F)(F)c1ccc2[nH]c(C(=O)N[C@H]3CCCCC4CC[C@@H](C(=O)NC(CCC(N)=O)C(=O)NCc5ccccc5)N4C3=O)cc2c1 (stereo partly shown) [Example 68] | > 100 µM |
| CCOP(=O)(OCC)C(F)(F)c1ccc2c(c1)cc(C(=O)N[C@H]1CCCCC3CC[C@@H](C(=O)NC(CCC(N)=O)C(=O)NCc4ccccc4)N3C1=O)n2C (stereo partly shown) [Example 62] | > 100 µM |
| CCCCCCCCCCCCCCCCOP(=O)(O)C(F)(F)c1ccc2cc(C(=O)N[C@H]3CCCC[C@H]4CC[C@@H](C(=O)NCCc5cn[nH]c5)N4C3=O)[nH]c2c1 | > 100 µM |
| CCCCCCCCCCCCCCCCOP(=O)(OCCCCCCCCCCCCCCCC)C(F)(F)c1ccc2cc(C(=O)N[C@H]3CCCC[C@H]4CC[C@@H](C(=O)N(CC)CC)N4C3=O)[nH]c2c1 | > 100 µM |
| CC(C)(C)C(=O)OCOP(=O)(OCOC(=O)C(C)(C)C)C(F)(F)c1ccc2[nH]c(C(=O)N[C@H]3CCCCC4CC[C@@H](C(=O)NC(CCC(N)=O)C(=O)NCc5ccccc5)N4C3=O)cc2c1 (stereo partly shown) [Example 64] | > 100 µM |
| CCCCCCCCCCCCCCCCNC(=O)C(CCC(N)=O)NC(=O)[C@@H]1CCC2CCCC[C@H](NC(=O)c3cc4cc(C(F)(F)P(=O)(OCOC(=O)C(C)(C)C)OCOC(=O)C(C)(C)C)ccc4[nH]3)C(=O)N21 (stereo partly shown) [Example 67] | > 100 µM |
| CC(C)(C)C(=O)OCOP(=O)(OCOC(=O)C(C)(C)C)C(F)(F)c1ccc(/C=C/C(=O)N[C@H]2CCCCC3CC[C@@H](C(=O)N[C@@H](CCC(N)=O)C(=O)NCc4ccccc4)N3C2=O)cc1 (stereo partly shown) | > 100 µM |
| CC(C)OC(=O)OCOP(=O)(OCOC(=O)OC(C)C)C(F)(F)c1ccc2[nH]c(C(=O)N[C@H]3CCCCC4CC[C@@H](C(=O)NCCc5cn[nH]c5)N4C3=O)cc2c1 (stereo partly shown) [Example 69] | > 100 µM |
| CCCCCCCCCCCCCCCCOP(=O)(OCCCCCCCCCCCCCCCC)C(F)(F)c1ccc2cc(C(=O)N[C@H]3CCCC[C@H]4CC[C@@H](C(=O)NCCc5cn[nH]c5)N4C3=O)[nH]c2c1 | > 100 µM |
| CC(C)(C)C(=O)OCOP(=O)(OCOC(=O)C(C)(C)C)C(F)(F)c1ccc(/C=C/C(=O)N[C@H]2CCCCC3CC[C@@H](C(=O)NCCc4cn[nH]c4)N3C2=O)cc1 (stereo partly shown) | < 30 µM |
